Results: PubChem BioAssay (NCI)
“And” between values parts separate entries of the source, which are not always exact repeats. Identical values can stand only once.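 Values below derive from 48-hour exposures of cells grown in 96-well plates, with endpoints linearly interpolated between the two concentrations bracketing the appropriate inhibition level. GI50: concentration for 50% inhibition of growth. TGI is the concentration that stops growth completely.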

The compounds below were run on MDA-MB-435 (assay: NCI tumour cell line growth inhibition, 48 h).

Compound	TGI	GI50
Nc1nc2[nH]cc(CCc3ccc(C(=O)N[C@@H](CCC(=O)O)C(=O)O)cc3)c2c(=O)[nH]1	> 100 µM	–
COC1=CC(=O)C(C2(OC(C)C)OC(=O)C(Cl)=C2Cl)=CC1=O (configuration not stated)	> 100 µM	–
CN1CCN(C(=O)COc2ccc(C34CC5CC(CC(C5)C3)C4)cc2)CC1	28.8 µM	14.6 µM
COc1ccccc1NC(=O)c1cc2cc(Br)ccc2cc1O	8.58 µM	2.35 µM
O=C(Nc1nn2c(-c3cc(C(F)(F)F)cc(C(F)(F)F)c3)nnc2s1)C1CCCC1	> 39.8 µM	0.424 µM
COC(=O)[C@]12CC[C@@H](C)[C@H](C)[C@@H]1C1=CC[C@@H]3[C@@]4(C)C[C@@H](O)[C@H](O)[C@@](C)(CO)[C@@H]4[C@H](O)C[C@@]3(C)[C@]1(C)CC2	27.3 µM	13 µM
COCCn1cc(-c2nc(-c3cc4cccnc4[nH]3)cs2)c2cc(OC)ccc21	> 100 µM	5.27 µM
O=[N+]([O-])c1cc([N+](=O)[O-])c(C(F)(F)F)cc1NN=C(c1ccc(O)cc1)c1ccc(O)cc1	4.92 µM	1.92 µM
c1ccc(Nc2ncc(-c3ccccc3)o2)cc1	> 25 µM	> 25 µM
COc1c2ccccc2c(OC)c2[nH]c(=O)ccc12	4.07 µM	1.98 µM
O=C(O)C(Cl)Cl	> 10000 µM	5460 µM and > 10000 µM
NC(=S)N/N=C\c1nccc2c(C(F)(F)F)cccc12	31.5 µM	0.481 µM
CC(=O)N[C@@H](Cc1ccc(OP(=O)(O)O)cc1)C(=O)N[C@H]1CCC(=O)N2CCC[C@@H](C(=O)Nc3cccc4ccccc34)N2C1=O	> 25 µM	> 25 µM
CN1CCN(c2ccc(Nc3ncc(Cl)c(NC[C@@H]4CCCO4)n3)cc2)CC1	15.3 µM	1.64 µM

The compounds below were run on SK-OV-3 ovarian (assay: NCI tumour cell line growth inhibition, 48 h).

Compound	TGI	GI50
Nc1nc2[nH]cc(CCc3ccc(C(=O)N[C@@H](CCC(=O)O)C(=O)O)cc3)c2c(=O)[nH]1	> 100 µM	–
COC1=CC(=O)C(C2(OC(C)C)OC(=O)C(Cl)=C2Cl)=CC1=O (configuration not stated)	> 100 µM	–
CN1CCN(C(=O)COc2ccc(C34CC5CC(CC(C5)C3)C4)cc2)CC1	30.4 µM	14 µM
COc1ccccc1NC(=O)c1cc2cc(Br)ccc2cc1O	6.08 µM	1.75 µM
O=C(Nc1nn2c(-c3cc(C(F)(F)F)cc(C(F)(F)F)c3)nnc2s1)C1CCCC1	45.8 µM	1.76 µM
COC(=O)[C@]12CC[C@@H](C)[C@H](C)[C@@H]1C1=CC[C@@H]3[C@@]4(C)C[C@@H](O)[C@H](O)[C@@](C)(CO)[C@@H]4[C@H](O)C[C@@]3(C)[C@]1(C)CC2	33.5 µM	19.4 µM
COCCn1cc(-c2nc(-c3cc4cccnc4[nH]3)cs2)c2cc(OC)ccc21	11.6 µM	3.04 µM
O=[N+]([O-])c1cc([N+](=O)[O-])c(C(F)(F)F)cc1NN=C(c1ccc(O)cc1)c1ccc(O)cc1	14.6 µM	4.25 µM
c1ccc(Nc2ncc(-c3ccccc3)o2)cc1	> 25 µM	> 25 µM
COc1c2ccccc2c(OC)c2[nH]c(=O)ccc12	> 100 µM	65.1 µM
O=C(O)C(Cl)Cl	> 10000 µM	> 10000 µM
NC(=S)N/N=C\c1nccc2c(C(F)(F)F)cccc12	5.89 µM	0.17 µM
CC(=O)N[C@@H](Cc1ccc(OP(=O)(O)O)cc1)C(=O)N[C@H]1CCC(=O)N2CCC[C@@H](C(=O)Nc3cccc4ccccc34)N2C1=O	> 25 µM	> 25 µM
CN1CCN(c2ccc(Nc3ncc(Cl)c(NC[C@@H]4CCCO4)n3)cc2)CC1	63.8 µM	2.63 µM

What follows are compounds tested on CAKI-1 renal (assay: NCI tumour cell line growth inhibition, 48 h).

Compound	GI50	TGI
Nc1nc2[nH]cc(CCc3ccc(C(=O)N[C@@H](CCC(=O)O)C(=O)O)cc3)c2c(=O)[nH]1	0.0845 µM	> 100 µM
COC1=CC(=O)C(C2(OC(C)C)OC(=O)C(Cl)=C2Cl)=CC1=O (configuration not stated)	–	> 100 µM
CN1CCN(C(=O)COc2ccc(C34CC5CC(CC(C5)C3)C4)cc2)CC1	15.6 µM	30.2 µM
COc1ccccc1NC(=O)c1cc2cc(Br)ccc2cc1O	1.42 µM	4.69 µM
O=C(Nc1nn2c(-c3cc(C(F)(F)F)cc(C(F)(F)F)c3)nnc2s1)C1CCCC1	0.311 µM	> 65.2 µM
COC(=O)[C@]12CC[C@@H](C)[C@H](C)[C@@H]1C1=CC[C@@H]3[C@@]4(C)C[C@@H](O)[C@H](O)[C@@](C)(CO)[C@@H]4[C@H](O)C[C@@]3(C)[C@]1(C)CC2	13.1 µM	27.3 µM
COCCn1cc(-c2nc(-c3cc4cccnc4[nH]3)cs2)c2cc(OC)ccc21	3.01 µM	> 82.4 µM
O=[N+]([O-])c1cc([N+](=O)[O-])c(C(F)(F)F)cc1NN=C(c1ccc(O)cc1)c1ccc(O)cc1	3.34 µM	15.3 µM
c1ccc(Nc2ncc(-c3ccccc3)o2)cc1	17.8 µM	> 25 µM
COc1c2ccccc2c(OC)c2[nH]c(=O)ccc12	16.2 µM	> 90.6 µM
O=C(O)C(Cl)Cl	5490 µM and > 10000 µM	> 10000 µM
NC(=S)N/N=C\c1nccc2c(C(F)(F)F)cccc12	0.312 µM	8.73 µM
CC(=O)N[C@@H](Cc1ccc(OP(=O)(O)O)cc1)C(=O)N[C@H]1CCC(=O)N2CCC[C@@H](C(=O)Nc3cccc4ccccc34)N2C1=O	> 25 µM	> 25 µM
CN1CCN(c2ccc(Nc3ncc(Cl)c(NC[C@@H]4CCCO4)n3)cc2)CC1	2.07 µM	> 100 µM

What follows are compounds tested on HCC-2998 colon (assay: NCI tumour cell line growth inhibition, 48 h).

Compound	GI50	TGI
Nc1nc2[nH]cc(CCc3ccc(C(=O)N[C@@H](CCC(=O)O)C(=O)O)cc3)c2c(=O)[nH]1	0.0576 µM	> 100 µM
COC1=CC(=O)C(C2(OC(C)C)OC(=O)C(Cl)=C2Cl)=CC1=O (configuration not stated)	–	> 100 µM
CN1CCN(C(=O)COc2ccc(C34CC5CC(CC(C5)C3)C4)cc2)CC1	13.8 µM	27.4 µM
COc1ccccc1NC(=O)c1cc2cc(Br)ccc2cc1O	3.21 µM	11.8 µM
O=C(Nc1nn2c(-c3cc(C(F)(F)F)cc(C(F)(F)F)c3)nnc2s1)C1CCCC1	0.685 µM	> 100 µM
COC(=O)[C@]12CC[C@@H](C)[C@H](C)[C@@H]1C1=CC[C@@H]3[C@@]4(C)C[C@@H](O)[C@H](O)[C@@](C)(CO)[C@@H]4[C@H](O)C[C@@]3(C)[C@]1(C)CC2	14.6 µM	31.2 µM
COCCn1cc(-c2nc(-c3cc4cccnc4[nH]3)cs2)c2cc(OC)ccc21	3.68 µM	97.4 µM
O=[N+]([O-])c1cc([N+](=O)[O-])c(C(F)(F)F)cc1NN=C(c1ccc(O)cc1)c1ccc(O)cc1	3.2 µM	8.58 µM
c1ccc(Nc2ncc(-c3ccccc3)o2)cc1	> 25 µM	> 25 µM
COc1c2ccccc2c(OC)c2[nH]c(=O)ccc12	13.2 µM	> 58.8 µM
O=C(O)C(Cl)Cl	> 10000 µM	> 10000 µM
NC(=S)N/N=C\c1nccc2c(C(F)(F)F)cccc12	0.411 µM	15.4 µM
CC(=O)N[C@@H](Cc1ccc(OP(=O)(O)O)cc1)C(=O)N[C@H]1CCC(=O)N2CCC[C@@H](C(=O)Nc3cccc4ccccc34)N2C1=O	> 25 µM	> 25 µM
CN1CCN(c2ccc(Nc3ncc(Cl)c(NC[C@@H]4CCCO4)n3)cc2)CC1	1.65 µM	37.5 µM

The compounds below were run on NCI-H522 lung (assay: NCI tumour cell line growth inhibition, 48 h).

Compound	TGI	GI50
Nc1nc2[nH]cc(CCc3ccc(C(=O)N[C@@H](CCC(=O)O)C(=O)O)cc3)c2c(=O)[nH]1	> 100 µM	–
COC1=CC(=O)C(C2(OC(C)C)OC(=O)C(Cl)=C2Cl)=CC1=O (configuration not stated)	96 µM	–
CN1CCN(C(=O)COc2ccc(C34CC5CC(CC(C5)C3)C4)cc2)CC1	33.4 µM	15 µM
COc1ccccc1NC(=O)c1cc2cc(Br)ccc2cc1O	7 µM	1.86 µM
O=C(Nc1nn2c(-c3cc(C(F)(F)F)cc(C(F)(F)F)c3)nnc2s1)C1CCCC1	2.29 µM	0.277 µM
COC(=O)[C@]12CC[C@@H](C)[C@H](C)[C@@H]1C1=CC[C@@H]3[C@@]4(C)C[C@@H](O)[C@H](O)[C@@](C)(CO)[C@@H]4[C@H](O)C[C@@]3(C)[C@]1(C)CC2	43.3 µM	20.9 µM
COCCn1cc(-c2nc(-c3cc4cccnc4[nH]3)cs2)c2cc(OC)ccc21	21 µM	2.99 µM
O=[N+]([O-])c1cc([N+](=O)[O-])c(C(F)(F)F)cc1NN=C(c1ccc(O)cc1)c1ccc(O)cc1	39.7 µM	3.82 µM
c1ccc(Nc2ncc(-c3ccccc3)o2)cc1	> 25 µM	> 25 µM
COc1c2ccccc2c(OC)c2[nH]c(=O)ccc12	> 100 µM	7.73 µM
O=C(O)C(Cl)Cl	> 10000 µM	8040 µM and > 10000 µM
NC(=S)N/N=C\c1nccc2c(C(F)(F)F)cccc12	0.805 µM	0.269 µM
CC(=O)N[C@@H](Cc1ccc(OP(=O)(O)O)cc1)C(=O)N[C@H]1CCC(=O)N2CCC[C@@H](C(=O)Nc3cccc4ccccc34)N2C1=O	> 25 µM	> 25 µM
CN1CCN(c2ccc(Nc3ncc(Cl)c(NC[C@@H]4CCCO4)n3)cc2)CC1	10.9 µM	1.52 µM
